# Laboratory results as given in patent publication US20230057359A1, “NOVEL USE OF STEVIOL” (SUNTORY HOLDINGS LIMITED, priority 2019, published 2023).
# What was measured:
# Format in all cases: cell-based
# [1] = test system: normal human subcutaneous preadipocytes differentiated into adipocytes; test: Cytotoxicity of steviol to adipocytes (WST-8 viable cell count); conditions: for Relative viable cell count (%): 10 days, Control=100%
# Method: 5×10^5 normal human subcutaneous preadipocytes (Cat. No. PT-5020, Lonza Group AG) were precultured for 6 days in a T75 flask using a growth medium (PBM-2 medium supplemented with 10% FBS, 2 mM L-glutamine, 50 μg/mL gentamycin, and 37 ng/mL amphotericin-B, Cat. No. PT-8002, Lonza Group AG) in a CO2 incubator (37° C., 5% CO2; the same holds true for the description below). The cells were detached using 0.25% trypsin-EDTA, seeded at 10,000 cells/100 μL/well in a 96-well plate using the growth medium, and cultured overnight in a CO2 incubator. On the next day, the medium was replaced with 100 μL of a differentiation medium (PBM-2 medium supplemented with 10% FBS, 2 mM L-glutamine, 50 μg/mL gentamycin, 37 ng/mL amphotericin-B, insulin, dexamethasone, indomethacin, and 3-isobutyl-1-methylxanthine (IBMX), Cat. No. PT-8002, Lonza Group AG: the same holds true for the description below) supplemented with varying concentrations of steviol (0.001, 0.01, 0.1, 1, 10 or 100 μg/mL, dissolved in 0.1% DMSO (final concentration)). The cells were cultured for 10 days in a CO2 incubator to induce their differentiation into adipocytes. On the fourth and seventh days after the differentiation induction, the medium was replaced with a fresh medium (100 μL) having the same composition as above. A vehicle control composed of a differentiation medium supplemented with 0.1% DMSO (final concentration) was used as a negative control. Viable cell count measurement was performed by the WST-8 method. Specifically, the medium of each well after culture was replaced with a differentiation medium (100 μL) supplemented with a 1/10 amount of viable cell count measurement reagent SF, and the cells were incubated in a CO2 incubator. 30 minutes later and 90 minutes later, absorbance (450 nm, reference wavelength: 630 nm) was measured using a plate reader (VARIOSKAN FLASH, Thermo Fisher Scientific Inc.), and absorbance difference per 60 minutes was regarded as a relative viable cell count (Control=100%).
# [2] = test system: normal human subcutaneous preadipocytes differentiated into adipocytes; test: Fat accumulation test in adipocytes (oil red staining); conditions: for Relative fat accumulation level (%): 10 days, DMSO=100%
# Method: Normal human subcutaneous preadipocytes were precultured using the growth medium in the same manner as in Example 1. The cells were detached using 0.25% trypsin-EDTA, seeded at 10,000 cells/100 μL/well to a 96-well plate using a growth medium, and cultured overnight in a CO2 incubator. On the next day, the medium was replaced with 100 μL of a differentiation medium supplemented with varying concentrations of steviol (12.5, 25, 50, 100 or 200 μg/mL, dissolved in 0.1% DMSO (final concentration)). The cells were cultured for 10 days in a CO2 incubator to induce their differentiation into adipocytes. On the fourth and seventh days after the differentiation induction, the medium was replaced with a fresh medium (100 μL) having the same composition as above. A differentiation medium supplemented with 25 mM LiCl (Cat. No. SML0559, Sigma-Aldrich Co., LLC) was used as a positive control, and a differentiation medium supplemented with 0.1% DMSO (final concentration) was used as a negative control. Cells cultured in a growth medium were used as an untreated control (Untreated). The cells thus cultured were subjected to oil red staining. Specifically, the cells were washed twice with 100 μL of DPBS (Cat. No. 14190250, Thermo Fisher Scientific Inc.). Then, the cells were fixed (room temperature, 10 min) in 100 μL of a 10% formalin solution (Cat. No. 061-00416, FUJIFILM Wako Pure Chemical Corp.). The cells were washed twice with 100 μL of DPBS, then incubated for 1 minute in 100 μL of 60% 2-propanol (Cat. No. 166-04836, FUJIFILM Wako Pure Chemical Corp.) that replaced the medium, and stained for 15 minutes in 100 μL of an oil red staining solution (Cat. No. 00625, Sigma-Aldrich Co., LLC) that replaced the 2-propanol solution. The cells were washed once with 100 μL of 60% 2-propanol and washed twice with 100 μL of DPBS. Then, cell images were taken in 100 μL of DPBS. After subsequent replacement with 120 μL of 100% 2-propanol, oil red was extracted by incubation for 5 minutes, and 100 μL of the extracts was transferred to each well of a fresh 96-well plate. Absorbance (520 nm) was measured using a plate reader (VARIOSKAN FLASH, Thermo Fisher Scientific Inc.), and a relative fat accumulation level was calculated. Significant difference of differentiation non-induced group vs differentiation induced group (negative control group) was tested (two-tailed), and P<0.05 was regarded as having significant difference. Also, significant difference of negative control group vs steviol addition group/positive control group was tested (two-tailed) by the Dunnett test, and P<0.05 was regarded as having significant difference.
# HepG2 cells = test: Cytotoxicity of steviol to hepatocytes (WST-8 viable cell count); conditions: for Relative viable cell count (%): 24 hours, Control=100%
# Method: 5×10^5 HepG2 cells (Cat. No. JCRB1054, JCRB) were precultured for 5 days in a T75 flask using a growth medium (DMEM (high glucose, Cat. No. D5796, Sigma-Aldrich Co., LLC) supplemented with 10% FBS (Cat. No. 172012, Sigma-Aldrich Co., LLC) and 1% penicillin-streptomycin (Cat. No. 09367-34, Nacalai Tesque Inc.)) in a CO2 incubator. The cells were detached using 0.25% trypsin-EDTA, seeded at 10,000 cells/100 μL/well to a 96-well plate using the growth medium, and cultured overnight in a CO2 incubator. On the next day, the medium was replaced with 100 μL of a growth medium supplemented with varying concentrations of steviol (0.001, 0.01, 0.1, 1, 10 or 100 μg/mL, dissolved in 0.1% DMSO (final concentration)), and the cells were cultured for 24 hours in a CO2 incubator. A vehicle control composed of a growth medium supplemented with 0.1% DMSO (final concentration) was used as a negative control (Control). Viable cell count measurement was performed by the WST-8 method. Specifically, the medium of each well after culture was replaced with 100 μL of growth medium supplemented with a 1/10 amount of viable cell count measurement reagent SF, and the cells were incubated in a CO2 incubator. 30 minutes later and 90 minutes later, absorbance (450 nm, reference wavelength: 630 nm) was measured using a plate reader (VARIOSKAN FLASH, Thermo Fisher Scientific Inc.), and absorbance difference per 60 minutes was regarded as a relative viable cell count.
smiles,measurement,setting,value
"C=C1C[C@@]23CC[C@H]4[C@@](C)(CCC[C@@]4(C)C(=O)O)[C@@H]2CC[C@]1(O)C3 [Steviol, steviol]",cytotoxicity to adipocytes (in words),[1]; 100 μg/mL steviol,no particular cytotoxicity to be noted was found
same,Relative viable cell count (%),[1]; steviol 0.01 μg/mL,101.8%
same,Relative viable cell count (%),[1]; steviol 0.1 μg/mL,101.7%
same,Relative viable cell count (%),[1]; steviol 1 μg/mL,95.0%
same,Relative viable cell count (%),[1]; steviol 10 μg/mL,103.6%
same,Relative viable cell count (%),[1]; steviol 100 μg/mL,93.1%
same,fat accumulation in adipocytes (in words),[2]; 12.5 to 200 μg/mL,suppressed fat accumulation in adipocytes in a concentration-dependent manner
same,Relative fat accumulation level (%),[2]; steviol 12.5 μg/mL,98.3%
same,Relative fat accumulation level (%),[2]; steviol 25 μg/mL,91.3%
same,Relative fat accumulation level (%),[2]; steviol 50 μg/mL,80.7%
same,Relative fat accumulation level (%),[2]; steviol 100 μg/mL,70.8%
same,Relative fat accumulation level (%),[2]; steviol 200 μg/mL,40.0%
same,cytotoxicity to hepatocytes (in words),HepG2 cells; 100 μg/mL steviol,no particular cytotoxicity to be noted was found
same,Relative viable cell count (%),HepG2 cells; steviol 0.01 μg/mL,98.8%
same,Relative viable cell count (%),HepG2 cells; steviol 0.1 μg/mL,98.4%
same,Relative viable cell count (%),HepG2 cells; steviol 1 μg/mL,95.3%
same,Relative viable cell count (%),HepG2 cells; steviol 10 μg/mL,95.6%
same,Relative viable cell count (%),HepG2 cells; steviol 100 μg/mL,87.7%
